Data reported in US7592160B2, “Processes for producing isomaltose and isomaltitol and use thereof” (Kabushiki Kaisha Hayashibara Seibutsu Kagaku Kenkyujo, priority 2001, dated 2009).

Tests used:
Parameters in all cases: key: −: no saccharide-transferred product was detected through transfer reaction to acceptor; ±: a saccharide-transferred product was detected in an amount less than one percent through transfer reaction to acceptor; +: a saccharide-transferred product was detected in an amount over one percent but less than 10% through transfer reaction to acceptor; ++: a saccharide-transferred product was detected in an amount over ten percent through transfer reaction to acceptor
[1] = test system: α-isomaltosylglucosaccharide-forming enzyme; assay: Transfer-acceptor specificity, enzyme of C9 strain; format: biochemical, Bacillus globisporus C9 strain; conditions: acceptor 1.6%, PINE-DEX #100 donor 4%, one unit/g donor, 30° C., pH 6.0, 24 hours
Procedure: (§1) Using various saccharides, it was tested whether the saccharides were used as transferring-acceptors for α-isomaltosylglucosaccharide-forming enzyme. A solution of D-glucose, D-xylose, L-xylose, D-galactose, D-fructose, D-mannose, D-arabinose, D-fucose, D-psicose, L-sorbose, L-rhamnose, methyl-α-glucopyranoside, methyl-β-glucopyranoside, N-acetyl-glucosamine, sorbitol, α,α-trehalose, isomaltose, isomaltotriose, cellobiose, gentibiose, glycerol, maltitol, lactose, sucrose, α-cyclodextrin, β-cyclodextrin, γ-cyclodextrin, or L-ascorbic acid was prepared. To each solution with a saccharide concentration of 1.6% was added “PINE-DEX #100”, a partial starch hydrolyzate, as a saccharide donor, to give a concentration of 4%, and admixed with one unit/g saccharide donor, d.s.b., of either of purified specimens of α-isomaltosylglucosaccharide-forming enzyme from Bacillus globisporus C9 strain obtained by the method in Experiment 4-2, Bacillus globisporus C11 strain obtained by the method in Experiment 7-2, Bacillus globisporus N75 strain obtained by the method in Experiment 11-2, or Arthrobacter globiformis A19 strain obtained by the method in Experiment 15-2, and incubated at 30° C. and pH 6.0 for 24 hours, except that pH 8.4 was used for the enzyme from Arthrobacter globiformis A19 strain. The reaction mixtures of the post-enzymatic reactions were analyzed on gas chromatography (abbreviated as “GLC” hereinafter) for monosaccharides and disaccharides as acceptors, and on HPLC for trisaccharides as acceptors to confirm whether these saccharides could be used as the transfer acceptors of the above enzymes. In the case of performing GLC, the following apparatuses and conditions were used: GLC apparatus, “GC-16A” commercialized by Shimadzu Corporation, Tokyo, Japan; column, a stainless-steel column, 3 mm in diameter and 2 m in length, packed with 2% “SILICONE OV-17/CHROMOSOLV W”, commercialized by GL Sciences Inc., Tokyo, Japan; carrier gas, nitrogen gas at a flow rate of 40 ml/min under temperature conditions of increasing from 160° C. to 320° C. at an increasing temperature rate of 7.5° C./min; and detection, a hydrogen flame ionization detector. In the case of performing HPLC analysis, the following apparatuses and conditions were used: HPLC apparatus, “CCPD” commercialized by Tosoh Corporation, Tokyo, Japan; column, “ODS-AQ-303” commercialized by YMC Co., Ltd., Tokyo, Japan; eluent, water at a flow rate of 0.5 ml/min; and detection, a differential refractometer.

[2] = test system: α-isomaltosylglucosaccharide-forming enzyme; assay: Transfer-acceptor specificity, enzyme of A19 strain; format: biochemical, Arthrobacter globiformis A19 strain; conditions: acceptor 1.6%, PINE-DEX #100 donor 4%, one unit/g donor, 30° C., pH 8.4, 24 hours
Procedure: as §1

[3] = test system: α-isomaltosylglucosaccharide-forming enzyme; assay: Transfer-acceptor specificity, enzyme of N75 strain; format: biochemical, Bacillus globisporus N75 strain; conditions: acceptor 1.6%, PINE-DEX #100 donor 4%, one unit/g donor, 30° C., pH 6.0, 24 hours
Procedure: as §1

[4] = test system: α-isomaltosylglucosaccharide-forming enzyme; assay: Transfer-acceptor specificity, enzyme of C11 strain; format: biochemical, Bacillus globisporus C11 strain; conditions: acceptor 1.6%, PINE-DEX #100 donor 4%, one unit/g donor, 30° C., pH 6.0, 24 hours
Procedure: as §1

| Structure (SMILES) | Product of transferring reaction, Enzyme of C9 strain [1] | Product of transferring reaction, Enzyme of A19 strain [2] | Product of transferring reaction, Enzyme of N75 strain [3] | Product of transferring reaction, Enzyme of C11 strain [4] |
| --- | --- | --- | --- | --- |
| C[C@H](O)[C@H](O)[C@@H](O)[C@@H](O)C=O [L-Rhamnose, L-rhamnose] | − | − | − | − |
| O=C(CO)[C@@H](O)[C@H](O)[C@@H](O)CO [L-Sorbose, L-sorbose] | + (a saccharide-transferred product was detected in an amount over one percent but less than 10% through transfer reaction to acceptor) | + (a saccharide-transferred product was detected in an amount over one percent but less than 10% through transfer reaction to acceptor) | + (a saccharide-transferred product was detected in an amount over one percent but less than 10% through transfer reaction to acceptor) | + (a saccharide-transferred product was detected in an amount over one percent but less than 10% through transfer reaction to acceptor) |
| O=C[C@@H](O)[C@H](O)[C@@H](O)CO [L-Xylose, L-xylose] | ++ (a saccharide-transferred product was detected in an amount over ten percent through transfer reaction to acceptor) | + (a saccharide-transferred product was detected in an amount over one percent but less than 10% through transfer reaction to acceptor) | ++ (a saccharide-transferred product was detected in an amount over ten percent through transfer reaction to acceptor) | ++ (a saccharide-transferred product was detected in an amount over ten percent through transfer reaction to acceptor) |
| CO[C@H]1O[C@H](CO)[C@@H](O)[C@H](O)[C@H]1O [Methyl-α-glucopyranoside, methyl-α-glucopyranoside] | ++ (a saccharide-transferred product was detected in an amount over ten percent through transfer reaction to acceptor) | ++ (a saccharide-transferred product was detected in an amount over ten percent through transfer reaction to acceptor) | ++ (a saccharide-transferred product was detected in an amount over ten percent through transfer reaction to acceptor) | ++ (a saccharide-transferred product was detected in an amount over ten percent through transfer reaction to acceptor) |
| CO[C@@H]1O[C@H](CO)[C@@H](O)[C@H](O)[C@H]1O [Methyl-β-glucopyranoside, methyl-β-glucopyranoside] | ++ (a saccharide-transferred product was detected in an amount over ten percent through transfer reaction to acceptor) | ++ (a saccharide-transferred product was detected in an amount over ten percent through transfer reaction to acceptor) | ++ (a saccharide-transferred product was detected in an amount over ten percent through transfer reaction to acceptor) | ++ (a saccharide-transferred product was detected in an amount over ten percent through transfer reaction to acceptor) |
| CC(=O)N[C@H]1C(O)O[C@H](CO)[C@@H](O)[C@@H]1O (stereo partly shown) [N-Acetylglucosamine, N-acetyl-glucosamine] | + (a saccharide-transferred product was detected in an amount over one percent but less than 10% through transfer reaction to acceptor) | − | + (a saccharide-transferred product was detected in an amount over one percent but less than 10% through transfer reaction to acceptor) | + (a saccharide-transferred product was detected in an amount over one percent but less than 10% through transfer reaction to acceptor) |
| OC[C@@H](O)[C@@H](O)[C@H](O)[C@@H](O)CO [Sorbitol, sorbitol] | − | − | − | − |
| OC[C@H]1O[C@@H]2O[C@H]3[C@H](O)[C@@H](O)[C@@H](O[C@H]4[C@H](O)[C@@H](O)[C@@H](O[C@H]5[C@H](O)[C@@H](O)[C@@H](O[C@H]6[C@H](O)[C@@H](O)[C@@H](O[C@H]7[C@H](O)[C@@H](O)[C@@H](O[C@H]1[C@H](O)[C@H]2O)O[C@@H]7CO)O[C@@H]6CO)O[C@@H]5CO)O[C@@H]4CO)O[C@@H]3CO [α-Cyclodextrin, α-cyclodextrin] | − | − | − | − |
| OC[C@H]1O[C@@H]2O[C@H]3[C@H](O)[C@@H](O)[C@@H](O[C@H]4[C@H](O)[C@@H](O)[C@@H](O[C@H]5[C@H](O)[C@@H](O)[C@@H](O[C@H]6[C@H](O)[C@@H](O)[C@@H](O[C@H]7[C@H](O)[C@@H](O)[C@@H](O[C@H]8[C@H](O)[C@@H](O)[C@@H](O[C@H]1[C@H](O)[C@H]2O)O[C@@H]8CO)O[C@@H]7CO)O[C@@H]6CO)O[C@@H]5CO)O[C@@H]4CO)O[C@@H]3CO [β-Cyclodextrin, β-cyclodextrin] | − | − | − | − |
| OC[C@H]1O[C@@H]2O[C@H]3[C@H](O)[C@@H](O)[C@@H](O[C@H]4[C@H](O)[C@@H](O)[C@@H](O[C@H]5[C@H](O)[C@@H](O)[C@@H](O[C@H]6[C@H](O)[C@@H](O)[C@@H](O[C@H]7[C@H](O)[C@@H](O)[C@@H](O[C@H]8[C@H](O)[C@@H](O)[C@@H](O[C@H]9[C@H](O)[C@@H](O)[C@@H](O[C@H]1[C@H](O)[C@H]2O)O[C@@H]9CO)O[C@@H]8CO)O[C@@H]7CO)O[C@@H]6CO)O[C@@H]5CO)O[C@@H]4CO)O[C@@H]3CO [γ-Cyclodextrin, γ-cyclodextrin] | − | − | − | − |
